Results on 33 compounds are retold here after a melting point compilation (Tetko et al.; mined from patent text by program, amines drawn as free bases though some values may be those of a salt).

Structures are written as SMILES.

Usually melting point stands for the temperature of the solid-liquid transition.

`CN(c1cccc2cc(C3=NCC4(CCN(CC#N)CC4)S3)[nH]c12)S(=O)(=O)c1cccs1`: the melting point was found to be 211 °C.

`CC(=O)NC[C@H]1CN(c2ccc(N3CC(C)(O)C3)c(F)c2)C(=O)O1` gave a melting point of 152 to 153 °C. Under `CCOc1cc([C@@H](CCN(C=O)OC(C)=O)N2Cc3cccc(NC(=O)C(C)C)c3C2=O)ccc1OC` stands 72 to 74 °C; under `COCCOC(=O)Nc1cc(N2CC=CCC2)nc(N)n1`, 136 °C. Under `CCNC(=O)c1ncn2c1CN=C(c1ccccc1Br)c1cc(F)ccc1-2` stands 218 to 220 °C; under `COc1ccc(C2C=C3CCN(C)CC3C(CO)C2CO)cc1` (stereo not drawn), 169 to 171 °C. The compound `COC(=O)C=Cc1ccc(OCCc2nc(-c3ccccc3)oc2C)nc1` yielded a melting point of 138 to 139 °C. As for `CC(=O)c1nc2cc(Cl)c(OCC(F)(F)F)cc2cc1OCc1ccccc1`, the melting point fell in the range of 110 to 112 °C. Under `COc1cc(C=C(C=O)C(C=O)=Cc2ccc(OC(=O)c3ccccc3)c(OC)c2)ccc1OC(=O)c1ccccc1` stands 107 to 110 °C; under `CC(C)(C)Nc1c[nH]c2ccccc12`, 137 to 142 °C; under `CC(C)(C)OC(=O)N1CCC(c2ccc3[nH]c(=O)[nH]c3c2)CC1`, above 250 °C. `C=C(C)CONC(=O)c1nc(-c2ccc(Cl)c(OC)c2F)cc(N)c1Cl` showed a melting point of 147 to 149 °C. Under `CCCc1c(OCCCCCOc2ccc3cc(OCC(=O)O)ccc3c2CCC(=O)O)ccc2c1OCCC2=O` stands 160 to 163 °C. Under `COc1ccc(C(=O)Nc2cc([N+](=O)[O-])ccc2Br)cc1OC` stands 183 to 184 °C. Regarding `CCc1ccc(-c2ccc(NC(=O)OC(C)(C)C)c([N+](=O)[O-])c2)cc1`, the melting point is 94 to 99 °C. `COc1ccc(CN(CCN(C)CCCCNC(=O)NCCSCc2csc(NC(=N)N)n2)c2ccccn2)cc1` displayed a melting point of 104 to 106 °C. Under `N/C(=C1/Sc2ccccc2C1=O)c1ccccc1N` stands 186 to 187 °C; under `CC(=O)Nc1ccc2c(c1)CCC1CC(=O)NN=C21` (stereo not drawn), 284 °C; under `CNc1cccc(-c2nc(=O)c3ccccc3s2)n1`, 207 to 208 °C. Under `Cn1c2cc(Cl)ccc2c2c(=O)[nH]c(-c3ccccc3)nc21` stands above 300 °C; under `Cc1cc([N+](=O)[O-])c(O)cc1Cl`, 70 to 71 °C; under `CSC(=C[N+](=O)[O-])NCCCCc1csc(N(CC(F)(F)F)C(=N)N)n1`, 140 to 141 °C.

As for `Cc1ccc(S(=O)(=O)Nc2cccc(Sc3ccccc3)n2)cc1`, the melting point is 128 to 130 °C. `CCCNc1cc(=O)[nH]c(-c2ccccc2OCCC)n1`: the melting point was 172 to 173 °C. With `CCOC(=O)CC(=O)Cc1ccc(Br)cc1[N+](=O)[O-]`, the melting point was 78 to 80 °C. As for `CC(C)C[C@H](NC(=O)c1c(F)cccc1F)C(=O)N[C@@H](C(C)C)[C@@H](O)c1c(-c2ccccc2)c1=O`, the melting point was 111 to 122 °C. As for `CCCOc1ccc(C(=O)O)cc1C(C)=O`, the melting point lay within 165 to 169 °C.

`CCOC(=O)C(=NOC(CC)C(=O)O)c1csc(NC(c2ccccc2)(c2ccccc2)c2ccccc2)n1` (stereo not drawn) returned a melting point of 154 °C.

Take `COC(=O)[C@H](Cc1ccc(NC(=O)c2c(Cl)cccc2Cl)cc1)NC(=O)C1(CCNC(C)=O)CCCC1`: the melting point lay in the range of 190 to 194 °C. On to `Cn1c(=O)c(-c2ccc(Cl)cc2Cl)cc2c3cc(-c4ccno4)ccc3n(C)c21`, for which the melting point was 241 to 242 °C. `CC(C)(C)OC(=O)N1CCn2c(c(I)c(C#N)c2-c2ccccc2)C1` had a melting point of 174 to 178 °C. Under `c1ccc(OCn2c(Nc3cnon3)nc3ccccc32)cc1` stands 171 to 173 °C; under `COC(=O)C(Cc1ccc(-c2cccc(CNCC(=O)c3ccccc3)c2)cc1)Nc1ccccc1C(=O)c1ccccc1` (stereo not drawn), 75 °C.
